pKd, pKi: −log10 of the molar value.

Assay [1] has as its target T1, Bromodomain-containing protein 4 (Homo sapiens, UniProt O60885). Briefly: Inhibition of BRD4 BD1 (unknown origin) using FAM-labeled JQ-1 as fluorescent substrate assessed as inhibition constant incubated for 30 mins by competitive fluorescence polarization method. (In general: In fluorescence polarisation assays a small probe gives low polarisation when free and higher when bound to something large.)

In assay [2] the target is T1, Bromodomain-containing protein 4. Briefly: Inhibition of BRD4 BD1 (57 to 168 residues) (unknown origin) transfected in Escherichia coli (DE3) using FAM-labeled JQ-1 as fluorescent substrate at 100 uM incubated for 30 mins by competitive fluorescence polarization method relative to control.
Assay [3] has the same target. Description: Inhibition of BRD4 BD2 (352 to 457 residues) (unknown origin) transfected in Escherichia coli (DE3) using FAM-labeled JQ-1 as fluorescent substrate at 100 uM incubated for 30 mins by competitive fluorescence polarization method relative to control.
Assay [4] concerns RAW264.7. Briefly: Antiinflammatory activity in mouse RAW264.7 cells assessed as inhibition of LPS-induced NO production at 10 uM preincubated for 2 hrs followed by LPS stimulation and measured after 22 hrs by Griess reagent-based assay relative to control. In kind it is functional. The conditions noted are these: time 24 hrs. (Griess reagent forms a coloured azo dye with nitrite.)

Assay [5] deals with RAW264.7. Description: Antiinflammatory activity in mouse RAW264.7 cells assessed as inhibition of LPS-induced NO production at 5 uM preincubated for 2 hrs followed by LPS stimulation and measured after 22 hrs by Griess reagent-based assay relative to control. In kind it is functional. The conditions noted are these: time 24 hrs.
Assay [6] addresses T1, Bromodomain-containing protein 4. Description: Binding affinity to His-tagged biotinylated BRD4 BD1 (unknown origin) assessed as dissociation constant by biolayer interferometry analysis. (In BLI a coated tip is dipped into the sample, and binding shifts an interference pattern.)
Assay [7] shares this target. Description: Inhibition of BRD4 BD2 (352 to 457 residues) (unknown origin) transfected in Escherichia coli (DE3) using FAM-labeled JQ-1 as fluorescent substrate at 5 uM incubated for 30 mins by competitive fluorescence polarization method relative to control.
Assay [8] shares this target. Description: Inhibition of BRD4 BD2 (352 to 457 residues) (unknown origin) transfected in Escherichia coli (DE3) using FAM-labeled JQ-1 as fluorescent substrate at 50 uM incubated for 30 mins by competitive fluorescence polarization method relative to control.
For assay [9] the target is unchanged. Briefly: Binding affinity to His-tagged biotinylated BRD4 BD1 (unknown origin) assessed as dissociation rate constant by biolayer interferometry analysis.
Assay [10] shares this target. Description: Binding affinity to His-tagged biotinylated BRD4 BD1 (unknown origin) assessed as binding constant (Kon) by biolayer interferometry analysis.
The target is the same in assay [11]. Briefly: Inhibition of BRD4 BD1 (57 to 168 residues) (unknown origin) transfected in Escherichia coli (DE3) using FAM-labeled JQ-1 as fluorescent substrate at 5 uM incubated for 30 mins by competitive fluorescence polarization method relative to control.
For assay [12] the target is unchanged. Description: Inhibition of BRD4 BD1 (57 to 168 residues) (unknown origin) transfected in Escherichia coli (DE3) using FAM-labeled JQ-1 as fluorescent substrate at 50 uM incubated for 30 mins by competitive fluorescence polarization method relative to control.

Broadly, the pKi is the negative decadic logarithm of the Ki, by convention in mol/L. As to `COc1ccc(-c2nc(SCc3ccccc3Cl)ncc2C#N)cc1OC`, the pKi in [1] is 5.31.
A word on the inhibition: it is how much of the control response was suppressed. As to `CCOc1ccc(-c2nc(SCc3ccccc3Cl)[nH]c(=O)c2C#N)cc1OC`, the inhibition worked out at 64.7% in [2] and 55.7% in [3].
Consider `COc1cc(OC)cc(-c2nc(SCc3ccccc3Cl)[nH]c(=O)c2C#N)c1`, for which the inhibition came out at 40.3% in [2] and 47.2% in [3].
Regarding `CCOc1ccc(-c2nc(SCc3ccccc3Cl)[nH]c(=O)c2C#N)cc1OCC`, the inhibition in assay [2] is 56.8%; in assay [3], 55.9%.
Take `COc1cc(-c2nc(SCc3ccccc3C(F)(F)F)[nH]c(=O)c2C#N)cc(OC)c1OC`: the inhibition at 10 µM in the assay on RAW264.7 [4] came out at 81%. Further, in assay [1], the pKi is 5.92. Besides, the inhibition at 5 µM with RAW264.7 [5] stood at 62.4%.
For the compound `COc1cc(-c2nc(SCc3ccccc3Cl)[nH]c(=O)c2C#N)cc(O)c1OC`, the inhibition in [2] is 69.3%; in [3], 63.4%. For the same compound, in assay [1], the pKi was 5.71.
In the case of `COc1ccc(-c2nc(SCc3ccccc3Cl)[nH]c(=O)c2C#N)cc1`, the inhibition in [2] came to 44.1%; in [3] it was 18.8%.
With `COc1cccc(-c2nc(SCc3ccccc3Cl)[nH]c(=O)c2C#N)c1`, the inhibition in assay [2] came to 45.3%; in assay [3], 45.1%.
Take `COc1cc(-c2nc(SCc3ccccc3[N+](=O)[O-])[nH]c(=O)c2C#N)cc(OC)c1OC`: the inhibition at 10 µM with RAW264.7 [4] was determined as 32.4%. The pKi in assay [1] is 6.10. The inhibition at 5 µM in the assay on RAW264.7 [5] was 29.3%.
For `CNC(=O)c1cccc(-c2nc(SCc3ccccc3Cl)[nH]c(=O)c2C#N)c1`, the inhibition is 66.4% in assay [2] and 65.9% in [3].
As to `COc1cc(-c2nc(SCc3cc(C)cc(C)c3)[nH]c(=O)c2C#N)cc(OC)c1OC`, in the assay on RAW264.7 [4], the inhibition at 10 µM stood at 92.1%. The pKi in assay [1] is 5.83. Moreover, in the assay on RAW264.7 [5], the inhibition at 5 µM is 69.3%.
Regarding `COc1cc(-c2nc(SCc3ccccc3Cl)[nH]c(=O)c2C#N)ccc1OC(F)F`, the inhibition came to 54.4% in assay [2] and 59.2% in [3].
Turning to `COc1cc(-c2nc(SCc3cccc(C)c3)[nH]c(=O)c2C#N)cc(OC)c1OC`, the inhibition at 10 µM in the assay with RAW264.7 [4] came to 75.5%. The pKi in assay [1] was 5.90. Also, the inhibition at 5 µM with RAW264.7 [5] came out at 14.9%.
In general, pKd refers to the negative decadic logarithm of the Kd, by convention in mol/L. Regarding `N#Cc1c(O)nc(SCc2ccccc2Cl)nc1-c1ccccc1`, in assay [6], the pKd was 3.74. Also, the inhibition in [2] stood at 47%; in [7], 19.3%; in [8], 83.5%; in assay [3], 46.5%; in assay [11] it was 7.01%; in assay [12], 71.9%. The Kdiss in assay [9] is 1.34 10^-1/s. Besides, the pKi in assay [1] was 4.91. For the same compound, the K in assay [10] was 7.28 10^2/Ms.
For `COc1cc(-c2nc(SCc3ccccc3F)[nH]c(=O)c2C#N)cc(OC)c1OC`, in the assay with RAW264.7 [4], the inhibition at 10 µM was found to be 94.1%. Moreover, the pKi in assay [1] is 6.06. In addition, in the assay with RAW264.7 [5], the inhibition at 5 µM was 33.7%.
With `Cc1cc2nc(SCC(=O)N(C)c3cccc(Cl)c3)[nH]c(=O)c2[nH]1`, the inhibition in assay [7] came out at 3.96%; in [8], 17.2%; in assay [11] it was 4.63%; in assay [12], 14.7%.
Consider `COc1ccc(-c2nc(SCCc3ccccc3Cl)[nH]c(=O)c2C#N)cc1OC`, for which the pKi in [1] is 5.12.
Turning to `COc1cc(-c2nc(SCc3ccc(C)cc3)[nH]c(=O)c2C#N)cc(OC)c1OC`, the inhibition at 10 µM with RAW264.7 [4] is 87.4%. For the same compound, the pKi in [1] was 5.86. Besides, the inhibition at 5 µM in the assay with RAW264.7 [5] was found to be 65.3%.
With `Cc1cccc(OCc2occc2C(=O)N(C)Cc2cc(O)nc3ccccc23)c1`, the inhibition came to 4.71% in assay [7], 15.1% in [8], 3.59% in assay [11] and 11.3% in [12].
In the case of `COc1ccccc1NS(=O)(=O)c1cc(-c2n[nH]c(=O)c3ccccc23)ccc1C`, the inhibition in [7] is 1.26%; in assay [8] it was 21.7%; in [12] it was 19%.
As to `Oc1ccc(-c2[nH]c(-c3ccccc3O)nc2-c2ccccc2)cc1`, the inhibition amounted to 3.96% in assay [7], 17.2% in assay [8], 11.8% in [11] and 53% in assay [12].
For the compound `COc1cc(-c2nc(SCc3ccccc3Cl)[nH]c(=O)c2C#N)cc(OC)c1OC`, the pKd in [6] is 6.12. For the same compound, the inhibition is 84.7% in assay [2] and 74.3% in [3]. Moreover, in the assay on RAW264.7 [4], the inhibition at 10 µM is 99.7%. Besides, in assay [9], the Kdiss is 2.9 10^-2/s. Moreover, in assay [1], the pKi was 5.76. Further, the K in [10] is 3.84 10^4/Ms. The inhibition at 5 µM in the assay on RAW264.7 [5] turned out to be 75.2%.
For `COc1ccc(CNC(=O)C2CCCN(c3nc4c(-c5ccc(C)cc5)csc4c(=O)[nH]3)C2)cc1` (stereo not given), the inhibition in [7] worked out at 3.8%; in [8] it was 29.7%; in assay [11] it was 2.1%; in [12], 21.9%.
Take `COc1cc(-c2nc(SCc3ccccc3Cl)[nH]c(=O)c2C#N)cc(Cl)c1OC`: the inhibition turned out to be 59.7% in [2] and 59.6% in assay [3].
In the case of `N#Cc1c(-c2ccc3c(c2)OCO3)nc(SCc2ccccc2Cl)[nH]c1=O`, the inhibition in assay [2] turned out to be 45.3%; in assay [3], 44.3%.
On to `COc1cccc(-c2cc(=O)[nH]c(N3CCN(c4ccccc4)CC3)n2)c1`, for which the inhibition amounted to 11% in assay [7], 41.7% in [8], 1.56% in assay [11] and 39% in assay [12].
Regarding `COc1ccccc1-c1nc(SCc2ccccc2Cl)[nH]c(=O)c1C#N`, the inhibition was found to be 44.3% in assay [2] and 47.5% in assay [3].
Take `COC(=O)c1cc(-c2nc(SCc3ccccc3Cl)[nH]c(=O)c2C#N)ccc1OC`: the results for the inhibition in assay [2] and in assay [3] were 42.9% and 48%, respectively.
As to `COc1ccc(-c2nc(SCc3ccccc3Cl)[nH]c(=O)c2C#N)c(OC)c1OC`, the inhibition was 53.1% in assay [2] and 51.7% in assay [3].
As for `COc1ccc(-c2nc(SCc3ccccc3Cl)n(C)c(=O)c2C#N)cc1OC`, the inhibition at 10 µM in the assay with RAW264.7 [4] amounted to 14.9%. Further, the pKi in [1] was 4.74. Besides, the inhibition at 5 µM in the assay on RAW264.7 [5] was 5.19%.
On to `COc1ccc(-c2nc(NCc3ccccc3)[nH]c(=O)c2C#N)cc1OC`, for which, in assay [1], the pKi was 4.79.
For `COc1cccc(-c2nc(SCc3ccccc3Cl)[nH]c(=O)c2C#N)c1OC`, the results for the inhibition in assay [2] and in assay [3] were 50.7% and 51.3%, respectively.
As for `COc1ccc(-c2nc(SCc3ccccc3Cl)[nH]c(=O)c2C#N)cc1C`, the inhibition in assay [2] stood at 53.1%; in [3] it was 55.1%.
In the case of `CCOc1cc(-c2nc(SCc3ccccc3Cl)[nH]c(=O)c2C#N)ccc1OC`, the inhibition in assay [2] is 65.3%; in [3] it was 62.4%.
Take `N#Cc1c(-c2ccc(OC(F)(F)F)cc2)nc(SCc2ccccc2Cl)[nH]c1=O`: the inhibition in assay [2] was 45.8%; in assay [3], 17.1%.
On to `COc1cc(-c2nc(SCc3cccc(C)c3C)[nH]c(=O)c2C#N)cc(OC)c1OC`, for which the inhibition at 10 µM in the assay on RAW264.7 [4] came out at 78.2%. In addition, in assay [1], the pKi was 5.76. The inhibition at 5 µM with RAW264.7 [5] stood at 51.8%.
`COc1ccc(OC)c(-c2nc(SCc3ccccc3Cl)[nH]c(=O)c2C#N)c1`: the values for the inhibition in [2] and in assay [3] were 51.6% and 43%, respectively.
Take `N#Cc1c(-c2ccc3c(c2)OCCO3)nc(SCc2ccccc2Cl)[nH]c1=O`: the inhibition in [2] stood at 55.5%; in assay [3], 53.8%.
Regarding `COc1ccc(-c2nc(SCc3ccccc3Cl)[nH]c(=O)c2C#N)cc1OC`, the inhibition in [2] amounted to 65.1%; in assay [3], 68.7%. The pKi in assay [1] is 5.49.

Source of the values: ChEMBL document CHEMBL5113393, “Discovery of 2-((2-methylbenzyl)thio)-6-oxo-4-(3,4,5-trimethoxyphenyl)-1,6-dihydropyrimidine-5-carbonitrile as a novel and effective bromodomain and extra-terminal (BET) inhibitor for the treatment of sepsis” (Eur J Med Chem, 2022).
